Experimental data from the supplement of paper PMC10307832.

Experiments:
Assay in all cases: relative viability (nuclei count vs DMSO), 5 days (fraction); higher = more cells survive
[1] = compound: C1=CC=C2C(=C1)C=CC(=C2SSC3=C(C=CC4=CC=CC=C43)O)O [IPA-3] + Nc1ncn([C@H]2C[C@H](O)[C@@H](CO)O2)c(=O)n1 [Decitabine] (partner 2 µM)
Summary of the method: (§1)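 Lung cancer cell lines, seeded in 1536-well plates, were treated the following day by pin tool with a single drug or with five library-drug doses (not always all listed) in √10 steps on top of a fixed anchor-drug dose. Cells were fixed and nuclei stained in one step after 5 days, and nuclei were counted. Relative viability is the nuclei count for treated wells divided by that for vehicle wells, reported as medians of duplicate plates.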

[2] = compound: Cc1ccc(-n2nc(C(C)(C)C)cc2NC(=O)Nc2ccc(OCCN3CCOCC3)c3ccccc23)cc1 [Doramapimod] + O=C(c1cc(Cc2n[nH]c(=O)c3ccccc23)ccc1F)N1CCN(C(=O)C2CC2)CC1 [Olaparib] (partner 8 µM)
Summary of the method: as §1

[3] = compound: Cn1c(Nc2ccc(C(F)(F)F)cc2)nc2cc(Oc3ccnc(-c4ncc(C(F)(F)F)[nH]4)c3)ccc21 [RAF265] + C[C@@H](Oc1cc(-c2cnn(C3CCNCC3)c2)cnc1N)c1c(Cl)ccc(F)c1Cl [Crizotinib] (partner 1 µM)
Summary of the method: as §1

[4] = compound: Cn1c(Nc2ccc(C(F)(F)F)cc2)nc2cc(Oc3ccnc(-c4ncc(C(F)(F)F)[nH]4)c3)ccc21 [RAF265] + C[C@]1(O)C[C@@H](c2nc(-c3ccc4ccc(-c5ccccc5)nc4c3)c3c(N)nccn32)C1 [Linsitinib] (partner 1 µM)
Summary of the method: as §1

Row | Cell Line | relative viability ([1]; first compound 0.2 µM) | relative viability ([1]; first compound 0.6325 µM) | relative viability ([1]; first compound 2 µM) | relative viability ([1]; first compound 6.325 µM) | relative viability ([1]; first compound 20 µM) | relative viability ([2]; first compound 0.02 µM) | relative viability ([2]; first compound 0.06325 µM) | relative viability ([2]; first compound 0.2 µM) | relative viability ([2]; first compound 0.6325 µM) | relative viability ([2]; first compound 2 µM) | relative viability ([3]; first compound 0.01 µM) | relative viability ([3]; first compound 0.03162 µM) | relative viability ([3]; first compound 0.1 µM) | relative viability ([3]; first compound 0.3162 µM) | relative viability ([3]; first compound 1 µM) | relative viability ([4]; first compound 0.01 µM) | relative viability ([4]; first compound 0.03162 µM) | relative viability ([4]; first compound 0.1 µM) | relative viability ([4]; first compound 0.3162 µM) | relative viability ([4]; first compound 1 µM)
1 | 201T | 0.888 | 0.861 | 0.839 | 0.868 | 0.947 | 0.869 | 1.01 | 0.848 | 0.96 | 0.839 | 1.08 | 0.996 | 1.05 | 1.06 | 1.08 | 1.04 | 0.982 | 0.994 | 0.89 | 0.885
2 | A549 | 0.379 | 0.278 | 0.128 | 0.274 | 0.179 | 0.376 | 0.3 | 0.299 | 0.3 | 0.269 | 0.72 | 0.656 | 0.677 | 0.511 | 0.36 | 0.61 | 0.536 | 0.648 | 0.273 | 0.249
3 | A-427 | 0.571 | 0.576 | 0.547 | 0.544 | 0.63 | 0.86 | 0.85 | 0.838 | – | 0.738 | 0.882 | 0.639 | 0.927 | 0.644 | 0.159 | 1.15 | 1.07 | 1.16 | 0.676 | 0.499
4 | ABC-1 | 1.35 | 1.02 | 1.33 | 0.99 | 1.26 | 0.851 | 0.68 | 0.698 | 0.983 | 0.935 | 1.17 | 0.864 | 1.37 | 0.851 | 0.464 | 0.875 | 0.803 | 0.933 | 0.661 | 0.407
5 | BEN | 0.612 | 0.824 | 0.758 | 0.712 | 0.665 | 1.05 | 1.1 | 1.01 | 0.901 | 0.967 | 0.955 | 0.911 | 0.961 | 1.07 | 0.821 | 0.897 | 1.01 | 1.12 | 0.939 | 0.791
6 | CAL-12T | – | – | – | – | – | 0.724 | 0.711 | 0.68 | 0.758 | 0.609 | 0.66 | 0.456 | 0.638 | 0.441 | 0.298 | 0.969 | 0.659 | 0.671 | 0.43 | 0.4
7 | COR-L23 | 0.553 | 0.469 | 0.41 | 0.419 | 0.256 | 0.368 | 0.351 | 0.368 | 0.315 | 0.379 | 0.799 | 0.75 | 0.638 | 0.465 | 0.424 | 0.847 | 0.838 | 0.662 | 0.431 | 0.312
8 | COR-L 105 | 0.652 | 0.609 | 0.657 | 0.66 | 0.649 | 0.59 | 0.727 | 0.707 | 0.824 | 0.602 | 0.844 | 0.689 | 0.755 | 0.503 | 0.297 | 1.17 | 0.882 | 0.976 | 0.725 | 0.504
9 | Calu-6 | – | – | – | – | – | 0.589 | 0.6 | 0.622 | 0.554 | 0.557 | 0.73 | 0.709 | 0.658 | 0.529 | 0.276 | 0.94 | 0.83 | 0.523 | 0.279 | 0.223
10 | ChaGo-K-1 | 0.536 | 0.479 | 0.503 | 0.509 | 0.487 | 0.472 | 0.423 | 0.438 | 0.379 | 0.398 | 1.15 | 1.15 | 1.18 | 1.05 | 0.792 | – | – | – | – | –
11 | EBC-1 | – | – | – | – | – | 0.664 | 0.69 | 0.689 | 0.675 | 0.558 | 0.181 | 0.194 | 0.191 | 0.26 | 0.219 | 0.963 | 0.856 | 0.754 | 0.577 | 0.503
12 | EKVX | 0.342 | 0.396 | 0.26 | 0.297 | 0.332 | 0.955 | 0.775 | 0.888 | 0.844 | 0.742 | 0.909 | 0.625 | 0.998 | 0.805 | 0.773 | 0.98 | 1.02 | 1.04 | 0.534 | 0.822
13 | EMC-BAC-2 | 1.02 | 0.967 | 0.958 | 0.819 | 1.07 | 0.494 | 0.441 | 0.469 | 0.473 | 0.43 | 0.747 | 0.685 | 0.617 | 0.501 | 0.234 | 0.761 | 0.793 | 0.734 | 0.596 | 0.348
14 | EPLC-272H | 0.406 | 0.397 | 0.325 | 0.38 | 0.397 | 0.732 | 0.766 | 0.726 | 1.03 | 0.717 | 0.765 | 0.868 | 1.32 | 0.472 | 0.434 | 1.08 | 1.02 | 1.03 | 0.608 | 0.431
15 | H3255 | 0.634 | 0.571 | 0.577 | 0.548 | 0.632 | 0.591 | 0.567 | 0.573 | 0.567 | 0.539 | 0.928 | 0.83 | 1.12 | – | 0.671 | 1 | 0.942 | 0.929 | 0.137 | 0.716
16 | HARA | 0.474 | 0.517 | 0.544 | 0.578 | 0.621 | 0.741 | 0.709 | 0.839 | 0.835 | 0.76 | 1.1 | 0.965 | 1.03 | 0.906 | 0.652 | 0.904 | 0.715 | 0.891 | 0.608 | 0.406
17 | HCC-15 | 0.754 | 0.572 | 0.612 | 0.61 | 0.629 | 0.675 | 0.692 | 0.675 | 0.654 | 0.623 | 0.83 | 0.817 | 0.836 | 0.566 | 0.499 | 0.886 | 0.835 | 0.754 | 0.639 | 0.394
